Assays:
soybean = assay: Test E postemergence; assay type: in vivo, Glycine max; conditions: scale 0 to 100
Excerpt: (§1) Seeds of plant species selected from corn (Zea mays), soybean (Glycine max), lambsquarters (Chenopodium album), poinsettia, wild (wild poinsettia, Euphorbia heterophylla), pigweed, palmer (palmer pigweed, Amaranthus palmeri), waterhemp (common waterhemp, Amaranthus rudis), surinam grass (Brachiaria decumbens), crabgrass, large (large crabgrass, Digitaria sanguinalis), crabgrass, Brazilian (Brazilian crabgrass, Digitaria horizontalis), panicum, fall (fall panicum, Panicum dichotomiflorum), foxtail, giant (giant foxtail, Setaria faberii), foxtail, green (green foxtail, Setaria viridis), goosegrass (Eleusine indica), johnsongrass (Sorghum halepense), ragweed (common ragweed, Ambrosia elatior), barnyardgrass (Echinochloa crus-galli), sandbur (southern sandbur, Cenchrus echinatus), arrowleaf sida (Sida rhombifolia), ryegrass, Italian (Italian ryegrass, Lolium multiflorum), dayflower, VA (Virginia dayflower, Commelina virginica), field bindweed (Convolvulus arvensis), cocklebur (common cocklebur, Xanthium strumarium), morningglory (Ipomoea coccinea), nightshade (eastern black nightshade, Solanum ptycanthum), kochia (Kochia scoparia), nutsedge, yellow (yellow nutsedge, Cyperus esculentus), smartweed (ladysthumb smartweed, Polygonum persicaria), velvetleaf (Abutilon theophrasti), horseweed (Conyza canadensis), and beggarticks (hairy beggarticks, Bidens pilosa), were planted into a silt loam soil and treated preemergence with test chemicals formulated in a non-phytotoxic solvent mixture which included a surfactant.
(§2) At the same time, plants from these crop and weed species and also waterhemp_RES1, (ALS & Triazine resistant common waterhemp, Amaranthus rudis), and waterhemp_RES2, (ALS & HPPD resistant common waterhemp, Amaranthus rudis) were planted in pots containing Sunshine Redi-Earth® planting medium comprising spaghnum peat moss, vermiculite, starter nutrients and dolomitic limestone were treated with postemergence applications of test chemicals formulated in the same manner. Plants ranged in height from 2 to 18 cm for postemergence treatments (1- to 4-leaf stage). Treated plants and controls were maintained in a greenhouse for 14 to 21 d, after which time all species were compared to controls and visually evaluated. Plant response ratings, summarized in Table E, are based on a scale of 0 to 100 where 0 is no effect and 100 is complete control. A dash (-) response means no test result.

arrowleaf sida = assay: Test E preemergence; assay type: in vivo, Sida rhombifolia; conditions: scale 0 to 100
Excerpt: as §1, §2

crabgrass, Brazilian = assay: Test E preemergence; assay type: in vivo, Digitaria horizontalis; conditions: Brazil, scale 0 to 100
Excerpt: as §1, §2

johnsongrass [1] = assay: Test C preemergence; assay type: in vivo, Sorghum halepense; conditions: for Plant response rating (scale of 0 to 100 where 0 is no effect and 100 is complete control): Johnsongrass, preemergence; for Johnsongrass plant response rating (0 to 100): Preemergence, visual rating after 13 to 15 d
Excerpt: Seeds of plant species selected from blackgrass (Alopecurus myosuroides), ryegrass, Italian (Italian ryegrass, Lolium multiflorum), wheat (winter wheat, Triticum aestivum), galium (catchweed bedstraw, Galium aparine), corn (Zea mays), crabgrass, large (large crabgrass, Digitaria sanguinalis), foxtail, giant, (giant foxtail, Setaria faberii), johnsongrass (Sorghum halepense), lambsquarters (Chenopodium album), morningglory (Ipomoea coccinea), nutsedge, yellow (yellow nutsedge, Cyperus esculentus), pigweed (Amaranthus retroflexus), ragweed (common ragweed, Ambrosia elatior), soybean (Glycine max), barnyardgrass (Echinochloa crus-galli), oilseed rape (Brassica napus), waterhemp (common waterhemp, Amaranthus rudis), and velvetleaf (Abutilon theophrasti) were planted into a blend of loam soil and sand and treated preemergence with test chemicals formulated in a non-phytotoxic solvent mixture which included a surfactant. At the same time, plants selected from these crop and weed species and also chickweed (common chickweed, Stellaria media), oat, wild (wild oat, Avena fatua), and kochia (Kochia scoparia), were planted in pots containing Sunshine Redi-Earth® planting medium comprising spaghnum peat moss, vermiculite, starter nutrients and dolomitic limestone and treated with postemergence applications of test chemicals formulated in the same manner. Plants ranged in height from 2 to 18 cm (1- to 4-leaf stage) for postemergence treatments. […] A dash (-) response means no test result.

sandbur [2] = assay: Test E postemergence; assay type: in vivo, Cenchrus echinatus; conditions: scale 0 to 100
Excerpt: as §1, §2

foxtail, giant = assay: Test E preemergence; assay type: in vivo, Setaria faberii; conditions: scale 0 to 100
Excerpt: as §1, §2

panicum, fall = assay: Test E preemergence; assay type: in vivo, Panicum dichotomiflorum; conditions: scale 0 to 100
Excerpt: as §1, §2

ryegrass, Italian = assay: Test E preemergence; assay type: in vivo, Lolium multiflorum; conditions: scale 0 to 100
Excerpt: as §1, §2

ragweed = assay: Test E postemergence; assay type: in vivo, Ambrosia elatior; conditions: scale 0 to 100
Excerpt: as §1, §2

pigweed, palmer = assay: Test E postemergence; assay type: in vivo, Amaranthus palmeri; conditions: scale 0 to 100
Excerpt: as §1, §2

johnsongrass [3] = assay: Test E preemergence; assay type: in vivo, Sorghum halepense; conditions: scale 0 to 100
Excerpt: as §1, §2

sandbur [4] = assay: Test E preemergence; assay type: in vivo, Cenchrus echinatus; conditions: scale 0 to 100
Excerpt: as §1, §2

corn [5] = assay: Test E postemergence; assay type: in vivo, Zea mays; conditions: scale 0 to 100
Excerpt: as §1, §2

goosegrass = assay: Test E preemergence; assay type: in vivo, Eleusine indica; conditions: scale 0 to 100
Excerpt: as §1, §2

corn [6] = assay: Test E preemergence; assay type: in vivo, Zea mays; conditions: scale 0 to 100
Excerpt: as §1, §2

CCOc1nc(-c2ccccc2)nn1Cc1ccnc(C(F)(F)F)c1 [Compound 27]
90: Plant response rating (arrowleaf sida; 125 g ai/ha) | Plant response rating (crabgrass, Brazilian; 16 g ai/ha)
35: Plant response rating (sandbur [4]; 16 g ai/ha) | Plant response rating (sandbur [4]; 31 g ai/ha)
25: Plant response rating (corn [5]; 125 g ai/ha) | Plant response rating (corn [6]; 62 g ai/ha)
65: Plant response rating (panicum, fall; 16 g ai/ha)
50: Plant response rating (ragweed; 16 g ai/ha) | Plant response rating (ragweed; 31 g ai/ha) | Plant response rating (ragweed; 62 g ai/ha) | Plant response rating (corn [6]; 125 g ai/ha)
45: Johnsongrass plant response rating (0 to 100) (johnsongrass [1]; 31 g ai/ha)
80: Plant response rating (soybean; 31 g ai/ha) | Plant response rating (soybean; 62 g ai/ha) | Plant response rating (scale of 0 to 100 where 0 is no effect and 100 is complete control) (johnsongrass [1]; 125 g ai/ha) | Johnsongrass plant response rating (0 to 100) (johnsongrass [1]; 62 g ai/ha) | Plant response rating (goosegrass; 16 g ai/ha)
20: Plant response rating (arrowleaf sida; 16 g ai/ha) | Plant response rating (arrowleaf sida; 31 g ai/ha) | Plant response rating (sandbur [2]; 31 g ai/ha) | Plant response rating (ryegrass, Italian; 31 g ai/ha) | Plant response rating (corn [5]; 62 g ai/ha)
98: Plant response rating (pigweed, palmer; 16 g ai/ha) | Plant response rating (pigweed, palmer; 31 g ai/ha) | Plant response rating (pigweed, palmer; 125 g ai/ha) | Plant response rating (sandbur [4]; 125 g ai/ha) | Plant response rating (goosegrass; 31 g ai/ha)
100: Plant response rating (crabgrass, Brazilian; 31 g ai/ha) | Plant response rating (crabgrass, Brazilian; 62 g ai/ha) | Plant response rating (crabgrass, Brazilian; 125 g ai/ha) | Plant response rating (scale of 0 to 100 where 0 is no effect and 100 is complete control) (johnsongrass [1]; 250 g ai/ha) | Plant response rating (foxtail, giant; 62 g ai/ha) | Plant response rating (foxtail, giant; 125 g ai/ha) | Plant response rating (panicum, fall; 31 g ai/ha) | Plant response rating (panicum, fall; 62 g ai/ha) | Plant response rating (panicum, fall; 125 g ai/ha) | Plant response rating (pigweed, palmer; 62 g ai/ha) | Plant response rating (johnsongrass [3]; 16 g ai/ha) | Plant response rating (johnsongrass [3]; 62 g ai/ha) | Plant response rating (johnsongrass [3]; 125 g ai/ha) | Plant response rating (goosegrass; 125 g ai/ha)
15: Plant response rating (corn [5]; 31 g ai/ha)
75: Plant response rating (arrowleaf sida; 62 g ai/ha) | Plant response rating (foxtail, giant; 16 g ai/ha) | Plant response rating (sandbur [4]; 62 g ai/ha)
0: Plant response rating (sandbur [2]; 16 g ai/ha) | Plant response rating (ryegrass, Italian; 16 g ai/ha) | Plant response rating (corn [6]; 16 g ai/ha) | Plant response rating (corn [6]; 31 g ai/ha)
60: Plant response rating (ryegrass, Italian; 62 g ai/ha) | Plant response rating (ragweed; 125 g ai/ha)
70: Plant response rating (soybean; 16 g ai/ha)
10: Plant response rating (corn [5]; 16 g ai/ha)
30: Plant response rating (sandbur [2]; 62 g ai/ha) | Plant response rating (sandbur [2]; 125 g ai/ha)
95: Plant response rating (soybean; 125 g ai/ha) | Plant response rating (foxtail, giant; 31 g ai/ha) | Plant response rating (ryegrass, Italian; 125 g ai/ha) | Plant response rating (johnsongrass [3]; 31 g ai/ha) | Plant response rating (goosegrass; 62 g ai/ha)

Fc1ccc(-c2nc(OCC(F)(F)F)n(Cc3ccnc(C(F)(F)F)c3)n2)cc1 [Compound 30]
50: Plant response rating (corn [6]; 250 g ai/ha)
35: Johnsongrass plant response rating (0 to 100) (johnsongrass [1]; 31 g ai/ha) | Plant response rating (sandbur [2]; 250 g ai/ha) | Plant response rating (sandbur [4]; 31 g ai/ha)
40: Plant response rating (arrowleaf sida; 31 g ai/ha) | Plant response rating (ryegrass, Italian; 62 g ai/ha)
65: Plant response rating (arrowleaf sida; 62 g ai/ha) | Johnsongrass plant response rating (0 to 100) (johnsongrass [1]; 62 g ai/ha) | Plant response rating (ragweed; 31 g ai/ha) | Plant response rating (johnsongrass [3]; 31 g ai/ha) | Plant response rating (johnsongrass [3]; 62 g ai/ha) | Plant response rating (sandbur [4]; 62 g ai/ha)
30: Plant response rating (sandbur [2]; 62 g ai/ha) | Plant response rating (sandbur [2]; 125 g ai/ha) | Plant response rating (ryegrass, Italian; 31 g ai/ha) | Plant response rating (corn [5]; 250 g ai/ha)
20: Plant response rating (sandbur [2]; 31 g ai/ha) | Plant response rating (corn [5]; 62 g ai/ha) | Plant response rating (corn [5]; 125 g ai/ha)
100: Plant response rating (crabgrass, Brazilian; 62 g ai/ha) | Plant response rating (crabgrass, Brazilian; 125 g ai/ha) | Plant response rating (crabgrass, Brazilian; 250 g ai/ha) | Plant response rating (foxtail, giant; 250 g ai/ha) | Plant response rating (panicum, fall; 31 g ai/ha) | Plant response rating (panicum, fall; 125 g ai/ha) | Plant response rating (panicum, fall; 250 g ai/ha) | Plant response rating (ryegrass, Italian; 250 g ai/ha) | Plant response rating (pigweed, palmer; 62 g ai/ha) | Plant response rating (pigweed, palmer; 125 g ai/ha) | Plant response rating (pigweed, palmer; 250 g ai/ha) | Plant response rating (johnsongrass [3]; 250 g ai/ha) | Plant response rating (goosegrass; 62 g ai/ha) | Plant response rating (goosegrass; 125 g ai/ha) | Plant response rating (goosegrass; 250 g ai/ha)
0: Plant response rating (corn [6]; 31 g ai/ha) | Plant response rating (corn [6]; 62 g ai/ha) | Plant response rating (corn [6]; 125 g ai/ha)
98: Plant response rating (foxtail, giant; 62 g ai/ha) | Plant response rating (foxtail, giant; 125 g ai/ha) | Plant response rating (panicum, fall; 62 g ai/ha) | Plant response rating (johnsongrass [3]; 125 g ai/ha)
90: Plant response rating (crabgrass, Brazilian; 31 g ai/ha) | Plant response rating (sandbur [4]; 125 g ai/ha)
80: Plant response rating (soybean; 62 g ai/ha) | Plant response rating (ragweed; 250 g ai/ha)
95: Plant response rating (soybean; 250 g ai/ha) | Plant response rating (arrowleaf sida; 250 g ai/ha) | Plant response rating (scale of 0 to 100 where 0 is no effect and 100 is complete control) (johnsongrass [1]; 250 g ai/ha) | Plant response rating (foxtail, giant; 31 g ai/ha) | Plant response rating (pigweed, palmer; 31 g ai/ha) | Plant response rating (sandbur [4]; 250 g ai/ha)
10: Plant response rating (corn [5]; 31 g ai/ha)
75: Plant response rating (soybean; 31 g ai/ha) | Plant response rating (ryegrass, Italian; 125 g ai/ha) | Plant response rating (ragweed; 125 g ai/ha)
85: Plant response rating (soybean; 125 g ai/ha) | Plant response rating (arrowleaf sida; 125 g ai/ha) | Plant response rating (scale of 0 to 100 where 0 is no effect and 100 is complete control) (johnsongrass [1]; 125 g ai/ha)
70: Plant response rating (ragweed; 62 g ai/ha) | Plant response rating (goosegrass; 31 g ai/ha)
